From patent US4159328A, “Tetrahydro-1,3,5-thiadiazin-4-one derivative” (Nihon Nohyaku Co., Ltd., priority 1977, dated 1979)
Where two headings read alike, the source gives them in different places.

Legend:
Format in all cases: in vivo
[1] = tested on: larvae of green rice leafhopper (Nephotettix cincticeps Uhler); assay: Test Example 5: activity against larvae of green rice leafhopper; settings: 168 h, 400 ppm, second-instar larvae, 25° C., seven days after treatment, read-out: Mortality
Method: Activity against larvae of green rice leafhopper (Nephotettix cincticeps Uhler).
Testing method: Five rice seedlings of the 1.5 leaf age were dipped in a test composition of 400 ppm concentration for 30 seconds. After air-drying, the seedlings were placed in a glass tube containing 1 ml of water and infested with five second-instar larvae of green rice leafhopper. The glass tube was left standing in a constant temperature cabinet at 25° C. Seven days after the treatment, dead-and-survivalwas inspected to calculate the mortality (3-replication test).

[2] = tested on: larvae of white-backed planthopper (Sogatella furcifera Horvath); assay: Test Example 2: insecticidal activity against larvae of white-backed planthopper; settings: 168 h, 400 ppm, first-instar larvae, 25° C., seven days after treatment, read-out: Mortality
Method: Insecticidal activity against larvae of white-backed planthopper (Sogatella furcifera Horvath).
(§1) Testing method: Five rice seedlings of the 1.5 leaf age were dipped in a test composition of 400 ppm concentration for 30 seconds. After air-drying, the seedlings were placed in a glass tube containing 1 ml of water and infested with five first-instar larvae of white-backed planthopper. The glass tube was left standing in a constant temperature cabinet at 25° C. and seven days after the treatment, dead-and-survival was observed. Mortality was calculated from the results of 3-replication test.

[3] = tested on: larvae of house mosquito (Culex pipiens pallens Coquillett); assay: Test Example 6: insecticidal activity to larvae of house mosquito; settings: 120 h
Method: Insecticidal activity to larvae of house mosquito (Culex pipiens pallens Coquillett).
Test method: In a 200-ml beaker, was placed together with a feed 100 ml of a test composition diluted with deionized water to 10 ppm concentration. The test composition was infested with 20 first-instar larvae of house mosquito and the beaker was covered with a sheet of Japanese paper. The beaker was kept in a constant temperature cabinet at 25° C. Five days after the treatment, the dead-and-survival was inspected to calculate the mortality.

[4] = tested on: two-spotted spider mite (Tetranychus urticae Koch); assay: Test Example 3: activity to two-spotted spider mite; settings: 120 h, 1,000 ppm, 5 days after treatment
From the text: Activity to two-spotted spider mite (Tetranychus urticae Koch).
Testing method: Two-spotted spider mites were set free on the pot-planted soybean in a greenhouse. On the next day, a test composition of 1,000 ppm concentration was sprayed over the soybean by means of a spray gun. Two days or five days after the treatment, dead-and-survival was inspected to calculate the mortality.

[5] = tested on: larvae of 28-spotted lady beetle (Epilachna vigintioctopunctana Fabricius); assay: Test Example 8: insecticidal activity against larvae of 28-spotted lady beetle; settings: 120 h
Method: Insecticidal activity against larvae of 28-spotted lady beetle (Epilachna vigintioctopunctana Fabricius).
Testing method: Leaflets of tomato grown in a greenhouse were dipped in a test composition of 100 ppm concentration for 30 seconds and after that the leaflets were dried by air. In a Petri dish covered on the bottom with a piece of filter paper, were introduced 1 ml of water and three treated tomato leaflets. After having been infested with seven second-instar larvae of 28-spotted lady beetle, the Petri dish was left standing in a constant temperature cabinet at 25° C. Five days after the treatment, the dead-and-survival was inspected to calculate the mortality (2-replication test).

[6] = tested on: larvae of brown planthopper (Nilaparvata lugens Stahl); assay: Test Example 1: insecticidal activity against larvae of brown planthopper; settings: 120 h, third-instar larvae, 25° C., 5 days after treatment
Method: Insecticidal activity against larvae of brown planthopper (Nilaparvata lugens Stahl).
as §1, with “third-instar” for “first-instar”, “brown” for “white-backed”, “5 or 7” for “seven”

[7] = 100 ppm, second-instar larvae, 25° C., five days, read-out: Mortality

SMILES | mortality at 400 ppm [1] [%] | mortality at 400 ppm [2] [%] | mortality at 10 ppm [3] [%] | mortality at 1000 ppm [4] [%] | mortality at 100 ppm [5] [%] | mortality at 400 ppm [6] [%] | mortality at 100 ppm [5, 7] [%]
CCC(C)N1C(=O)N(c2ccc(Cl)cc2)CSC1=NC(C)(C)C (stereo not shown) [Compound 198] | 100 | 100 | 100 | 100 | 100 | 100 | 
COc1ccc(N2CSC(=NC(C)(C)C)N(C(C)C)C2=O)cc1 [Compound 353, 2-t-Butylimino-3-isopropyl-5-(p-methoxyphenyl)tetrahydro-1,3,5-thiadiazin-4-one] | 100 | 100 | 100 | 100 | 100 | 100 | 
CC(C)N=C1SCN(c2ccc(Cl)c(Cl)c2)C(=O)N1Cc1ccccc1 [Compound 422] |  |  |  | 100 | 90 | 60 | 
CCC(C)N1C(=O)N(c2ccc(F)cc2)CSC1=NC(C)(C)C (stereo not shown) [Compound 284] | 100 | 100 | 100 | 100 | 100 | 100 | 
COc1ccc(N2CSC(=NC(C)C)N(C(C)C)C2=O)cc1 [Compound 352] | 100 | 100 | 100 |  | 100 | 100 | 
CCCN1C(=O)N(c2ccc(C)cc2)CSC1=NC(C)C [Compound 314] |  |  | 100 | 100 | 100 | 100 | 
CCCN1C(=O)N(c2cc(Cl)cc(Cl)c2)CSC1=NC(C)C [Compound 405] |  |  |  |  | 90 |  | 
CCCCN=C1SCN(c2ccccc2)C(=O)N1CCCC [Compound 146] |  |  | 100 |  | 100 |  | 
CC(C)N1C(=O)N(c2ccc(Cl)cc2Cl)CSC1=NC(C)(C)C [Compound 399] |  |  |  | 80 | 100 | 100 | 
CCC(C)N1C(=O)N(c2cccc(C)c2)CSC1=NC(C)(C)C (stereo not shown) [Compound 328] | 100 | 100 | 100 | 100 | 100 | 90 | 
Cc1cccc(N2CSC(=NC(C)C)N(C(C)C)C2=O)c1 [Compound 325] | 100 | 100 | 100 |  | 100 | 100 | 
CCCCN1C(=O)N(c2ccccc2)CSC1=NC(C)C [Compound 147] |  |  | 100 |  | 100 | 100 | 
CCC(C)N1C(=O)N(c2ccc(OC)cc2)CSC1=NC(C)(C)C (stereo not shown) [Compound 355, 2-t-butylimino-3-s-butyl-5-(p-methoxyphenyl)-tetrahydro-1,3,5-thiadiazin-4-one] | 100 | 100 | 90 | 100 | 100 | 100 | 
Cc1ccccc1N1CSC(=NC(C)(C)C)N(C(C)C)C1=O [Compound 302] | 100 | 100 | 100 | 70 | 80 | 100 | 
CCC(C)N=C1SCN(c2ccccc2)C(=O)N1c1ccccc1 (stereo not shown) [Compound 163, 2-s-Butylimino-3,5-diphenyl-tetrahydro-1,3,5-thiadiazin-4-one] |  |  |  |  |  |  | 60
CCN1C(=O)N(c2ccc(Cl)c(Cl)c2)CSC1=NC(C)(C)C [Compound 418] |  |  |  | 70 |  | 60 | 70
CCN=C1SCN(c2cc(Cl)cc(Cl)c2)C(=O)N1CC [Compound 404] |  |  |  | 100 | 90 |  | 
CN=C1SCN(c2ccc(Br)cc2)C(=O)N1C [Compound 291] | 100 | 100 | 70 | 100 | 100 | 100 | 
CCC(C)N=C1SCN(c2ccc(F)cc2)C(=O)N1C(C)CC (stereo not shown) [Compound 283] | 90 | 100 | 70 | 70 | 90 | 100 | 
CCC(C)N1C(=O)N(c2cccc(Cl)c2)CSC1=NC(C)(C)C (stereo not shown) [Compound 225, 2-t-Butylimino-3-s-butyl-5-(m-chlorophenyl)-tetrahydro-1,3,5-thiadiazin-4-one] | 90 | 100 | 100 | 100 |  | 100 | 
CCC(C)N1C(=O)N(c2ccccc2C)CSC1=NC(C)(C)C (stereo not shown) [Compound 303] | 100 | 100 |  | 80 | 100 | 100 | 
CC(C)N1C(=O)N(c2cccc(Cl)c2)CSC1=NC(C)(C)C [Compound 221, 2-t-Butylimino-3-isopropyl-5-(m-chlorophenyl)-tetrahydro-1,3,5-thiadiazin-4-one] | 100 | 100 | 100 | 100 | 90 | 100 | 
CC(C)N=C1SCN(c2ccc(Cl)cc2Cl)C(=O)N1C(C)C [Compound 398] |  |  |  | 80 | 80 | 100 | 
CC(C)N1C(=O)N(c2ccc([N+](=O)[O-])cc2)CSC1=NC(C)(C)C [Compound 364] |  |  |  | 60 | 80 | 100 | 
CC(C)N=C1SCN(c2ccc(F)cc2)C(=O)N1C(C)C [Compound 285] | 100 | 100 | 100 | 100 | 80 | 100 | 
CC(C)N1C(=O)N(c2ccc(F)cc2)CSC1=NC(C)(C)C [Compound 282, 2-t-butylimino-3-isopropyl 5-(p-fluorophenyl)-tetrahydro-1,3,5-thiadiazin-4-one] | 100 | 100 | 90 | 80 |  | 100 | 
C=CCN1C(=O)N(c2cc(Cl)cc(Cl)c2)CSC1=NC(C)C [Compound 412, 2-Isopropylimino-3-allyl-5-(3,5-dichlorophenyl)-tetrahydro-1,3,5-thiadiazin-4-one] |  |  |  | 100 | 100 | 100 | 
CC(C)N1C(=O)N(c2ccccc2Cl)CSC1=NC(C)(C)C [Compound 245, 2-t-butylimino-3-isopropyl-5-(o-chlorophenyl)-tetrahydro-1,3,5-thiadiazin-4-one] | 100 | 100 | 100 | 100 | 90 | 100 | 
CCC(C)N=C1SCN(c2cc(Cl)cc(Cl)c2)C(=O)N1C(C)CC (stereo not shown) [Compound 411] |  |  |  | 100 | 100 | 60 | 
CC(C)N=C1SCN(c2cccc(Cl)c2)C(=O)N1C(C)C [Compound 220] | 100 | 100 | 80 |  | 100 | 100 | 
